Measurements as given in US20180368393A1, “PRE- AND POST-STORAGE STRESS RESPONSE CONDITIONING” (CPSI HOLDINGS LLC, priority 2017, published 2018).

Legend:
hamster beta islet cells = experiment: Hamster beta islet cell survival following cryopreservation (AlamarBlue assay); type: cell-based; conditions: PW conditioning 24 hours vs non-modulated samples; 10 mM NAC recovery media
Method: The studies described in example 8 focus on the collection of cell survival data and the impact of post-thaw conditioning on hamster beta islet cells. Specific activities included standard cryopreservation protocol and collection of data (survival and cell death) from samples frozen using 3 unique cryopreservation solutions (media with 0, 5% DMSO and 5% DMSO+NAC) and oxidative stress PW modulation (NAC). Survival was determined at 24 hours post-thaw to allow for the manifestation of any delayed onset cell death pathways to be executed. Further, cell recovery was included to evaluate the long term potency and repopulation potential of the various samples.
Cell samples were processed according to standard controlled rate suspension freeze protocols and analyzed following 24 hours to 3 days post thaw for survival and recovery. […] To this end, samples were probed with AlamarBlue, incubated for 60 mins in the dark and then assessed using a Tecan micro plate reader. […]
FIG. 33 illustrates the results of an assessment of beta islet cell survival following cryopreservation in media based solutions with various CPA concentrations. […] Following thawing, samples were placed into culture and assessed for viability at 1 day (24 hours) post-thaw using the AlamarBlue assay. […]

[1] = test system: endothelial and smooth muscle cells; experiment: Summary of Examples 2-3: post-thaw survival of endothelial and smooth muscle cells (Calcein-AM assay); type: cell-based, human
Method: For pre-freeze (PF), post-warming (PW) and pre/post (P/P) conditioning studies, molecular modulation agents targeting inhibition of apoptosis (Caspase inhibitor IV, 8, 9 and a combination of Caspases 8 and 9), reduction of free-radical damage (resveratrol and NAC), and activation of the unfolded protein response (salubrinal) were employed as supplements in the media 1 hour prior to freezing (pre-freeze condition) or for 1 day following thawing and CPA removal from frozen samples (post-warming condition).
The device was used to thaw the samples, which were frozen in situ in monolayers in standard 96-well tissue culture plates. Samples were thawed from less than −170° C. to about 4° C. in the 96-well plate format in about 5 mins in a dry clean (“sterile”) environment.
The P/P regime was followed by PW using Caspase 8 inhibition or NAC inhibition.

CC(=O)N[C@@H](CS)C(=O)O [NAC, n-acetyl cysteine]
post-thaw survival (hamster beta islet cells): improvement in post-thaw survival | day 1 post-thaw cell survival and cell recovery ([1]; PF, PW and P/P conditioning, Unisol based solutions): Improvements in survival | increase in cell survival over non-treated samples ([1]; PW conditioning): ~50%
